Drawing on patent US20240228535A1 (priority 2022, published 2024), this text covers IC50 for 23 compounds.

The target in the assay is SARS2 coronavirus 3CL protease (Severe acute respiratory syndrome coronavirus 2, UniProt P0DTD1). As to the kind of experiment: biochemical. As to conditions: 5 nM enzyme, 30 min pre-incubation with compound, 15 μM peptide substrate, 4 h at room temperature; read-out: FRET Potency (nM); IC50 values in the SARS2 3CLPro FRET assay.
With `CNC(=O)C(=O)[C@H](C[C@@H]1C[C@@H](C)NC1=O)NC(=O)c1cc(Cl)ccc1NC(=O)C1CC1(F)F` (single isomer, unassigned) [Example 14], the IC50 came to 46.4 nM.

As to `CNC(=O)C(=O)[C@H](C[C@@H]1C[C@@H](C)NC1=O)NC(=O)c1cc(Cl)ccc1NC(=O)C1CCC(F)(F)C1` (single isomer, unassigned) [Example 16], the IC50 was 31.6 nM.

`CNC(=O)C(=O)[C@H](C[C@@H]1C[C@@H](C)NC1=O)NC(=O)c1cc(Cl)ccc1NC(=O)C1CC1(F)F` (single isomer, unassigned) [Example 60]: the IC50 worked out at 7.9 nM.

Regarding `CNC(=O)C(=O)[C@H](C[C@@H]1C[C@@H](C)NC1=O)NC(=O)c1cc(Cl)ccc1NC(=O)C1CCC(F)(F)C1` (single isomer, unassigned) [Example 65], the IC50 worked out at 7.2 nM.

Turning to `CNC(=O)C(=O)[C@H](C[C@@H]1C[C@@H](C)NC1=O)NC(=O)c1cc(Cl)ccc1NC(=O)C1CCCC(F)(F)C1` (single isomer, unassigned) [Example 198], the IC50 is 5.5 nM.

For the compound `CNC(=O)C(=O)[C@H](C[C@@H]1C[C@@H](C)NC1=O)NC(=O)c1cc(Cl)ccc1NC(=O)C1CCCC(F)(F)C1` (single isomer, unassigned) [Example 199], the IC50 came to 18.7 nM.

As to `CNC(=O)C(=O)[C@H](C[C@@H]1C[C@@H](C)NC1=O)NC(=O)c1cc(Cl)ccc1NC(=O)C(C)c1ccc(C(F)(F)F)nc1` (single isomer, unassigned) [Example 229], the IC50 came out at 33.5 nM.

For the compound `CNC(=O)C(=O)[C@H](C[C@@H]1C[C@@H](C)NC1=O)NC(=O)c1cc(Cl)ccc1NC(=O)C(C)c1ccc(C(F)(F)F)nc1` (single isomer, unassigned) [Example 230], the IC50 was 7 nM.

Consider `C[C@@H]1C[C@@H](C[C@H](NC(=O)c2cc(Cl)ccc2NC(=O)C2(C(F)(F)F)CC2)C(=O)C(=O)NC2CC2)C(=O)N1` [Example 1, 5-chloro-N—((S)-4-(cyclopropylamino)-1-((3S,5R)-5-methyl-2-oxopyrrolidin-3-yl)-3,4 dioxobutan-2-yl)-2-(1-(trifluoromethyl)cyclopropane-1-carboxamido)benzamide], for which the IC50 is 7.5 nM.

In the case of `C[C@@H]1C[C@@H](C[C@H](NC(=O)c2cc(Cl)ccc2NC(=O)c2ccnc(C(F)(F)F)c2)C(=O)C(=O)NC2CC2)C(=O)N1` [Example 2, N-(4-chloro-2-(((S)-4-(cyclopropylamino)-1-((3S,5R)-5-methyl-2-oxopyrrolidin-3-yl)-3,4-dioxobutan-2-yl)carbamoyl)phenyl)-2-(trifluoromethyl)isonicotinamide], the IC50 was found to be 5.6 nM.

In the case of `C[C@@H]1C[C@@H](C[C@H](NC(=O)c2cc(Cl)ccc2NC(=O)CCC(F)(F)F)C(=O)C(=O)NC2CC2)C(=O)N1` [Example 3, 5-chloro-N—((S)-4-(cyclopropylamino)-1-((3S,5R)-5-methyl-2-oxopyrrolidin-3-yl)-3,4-dioxobutan-2-yl)-2-(4,4,4-trifluorobutanamido)benzamide], the IC50 turned out to be 6.9 nM.

`CNC(=O)C(=O)[C@H](C[C@@H]1C[C@@H](C)NC1=O)NC(=O)c1cc(C#N)cnc1NC(=O)c1cc(C(F)(F)F)cc(C(F)(F)F)c1` [Example 4, 2-(3,5-bis(trifluoromethyl)benzamido)-5-cyano-N—((S)-1-((3S,5R)-5-methyl-2-oxopyrrolidin-3-yl)-4-(methylamino)-3,4-dioxobutan-2-yl)nicotinamide]: the IC50 was determined as 11.5 nM.

Take `C[C@@H]1C[C@@H](C[C@H](NC(=O)c2cc(Cl)cnc2NC(=O)C23CC(C(F)(F)F)(C2)C3)C(=O)C(=O)NC2CC2)C(=O)N1` [Example 5, 5-chloro-N—((S)-4-(cyclopropylamino)-1-((3S,5R)-5-methyl-2-oxopyrrolidin-3-yl)-3,4-dioxobutan-2-yl)-2-(3-(trifluoromethyl)bicyclo[1.1.1]pentane-1-carboxamido)nicotinamide]: the IC50 amounted to 8.7 nM.

Turning to `CC(C)OC(=O)Nc1ccc(Cl)cc1C(=O)N[C@@H](C[C@@H]1C[C@@H](C)NC1=O)C(=O)C(=O)NC1CC1` [Example 6, isopropyl (4-chloro-2-(((S)-4-(cyclopropylamino)-1-((3S,5R)-5-methyl-2-oxopyrrolidin-3-yl)-3,4-dioxobutan-2-yl)carbamoyl)phenyl)carbamate], the IC50 worked out at 4.8 nM.

For the compound `C[C@@H]1C[C@@H](C[C@H](NC(=O)c2cc(Cl)ccc2NC(=O)[C@H]2CC2(F)F)C(=O)C(=O)NC2CC2)C(=O)N1` [Example 8, 5-chloro-N—((S)-4-(cyclopropylamino)-1-((3S,5R)-5-methyl-2-oxopyrrolidin-3-yl)-3,4-dioxobutan-2-yl)-2-((R)-2,2-difluorocyclopropane-1-carboxamido)benzamide], the IC50 was 10.1 nM.

With `CNC(=O)C(=O)[C@H](C[C@@H]1C[C@@H](C)NC1=O)NC(=O)c1cc(Cl)ccc1NC(=O)OC` [Example 9, methyl (4-chloro-2-(((S)-1-((3S,5R)-5-methyl-2-oxopyrrolidin-3-yl)-4-(methylamino)-3,4-dioxobutan-2-yl)carbamoyl)phenyl)carbamate], the IC50 turned out to be 7.3 nM.

Regarding `CNC(=O)C(=O)[C@H](C[C@@H]1C[C@@H](C)NC1=O)NC(=O)c1cc(Cl)ccc1NC(=O)OC1CC1` [Example 10, cyclopropyl (4-chloro-2-(((S)-1-((3S,5R)-5-methyl-2-oxopyrrolidin-3-yl)-4-(methylamino)-3,4-dioxobutan-2-yl)carbamoyl)phenyl)carbamate], the IC50 amounted to 3.9 nM.

`CNC(=O)C(=O)[C@H](C[C@@H]1CCNC1=O)NC(=O)c1cc(Cl)ccc1NC(=O)OC1CC1` [Example 11, cyclopropyl (4-chloro-2-(((S)-4-(methylamino)-3,4-dioxo-1-((S)-2-oxopyrrolidin-3-yl)butan-2-yl)carbamoyl)phenyl)carbamate]: the IC50 was 4.8 nM.

`O=C(NC1CC1)C(=O)[C@H](C[C@@H]1CCNC1=O)NC(=O)c1cc(F)ccc1NC(=O)C1(C(F)(F)F)CC1` [Example 12, N-[(1S)-3-(cyclopropylamino)-2,3-dioxo-1-[[(3S)-2-oxopyrrolidin-3-yl]methyl]propyl]-5-fluoro-2-[[1-(trifluoromethyl)cyclopropane-carbonyl]amino]benzamide]: the IC50 was 48.2 nM.

Consider `C[C@@H]1C[C@@H](C[C@H](NC(=O)c2cc(C#N)ccc2NC(=O)C23CC(F)(C2)C3)C(=O)C(=O)NC2CC2)C(=O)N1` [Example 13], for which the IC50 was found to be 46.7 nM.

On to `C[C@@H]1C[C@@H](C[C@H](NC(=O)c2cc(Cl)ccc2NC(=O)C(C)(C)C(F)(F)F)C(=O)C(=O)NC2CC2)C(=O)N1` [Example 15, 5-chloro-N-[(1S)-3-(cyclopropylamino)-1-[[(3S,5R)-5-methyl-2-oxo-pyrrolidin-3-yl]methyl]-2,3-dioxo-propyl]-2-[(3,3,3-trifluoro-2,2-dimethyl-propanoyl)amino]benzamide], for which the IC50 turned out to be 33.5 nM.

For `C[C@@H]1C[C@@H](C[C@H](NC(=O)c2cc(C#N)ccc2NC(=O)C23CC(C(F)(F)F)(C2)C3)C(=O)C(=O)NC2CC2)C(=O)N1` [Example 17], the IC50 worked out at 31.1 nM.

As for `CNC(=O)C(=O)[C@H](C[C@@H]1C[C@@H](C)NC1=O)NC(=O)c1cc(OC(F)F)cnc1NC(=O)c1cccc(C(F)(F)F)c1` [Example 18, 5-(difluoromethoxy)-N-[(1S)-3-(methylamino)-1-[[(3S,5R)-5-methyl-2-oxo-pyrrolidin-3-yl]methyl]-2,3-dioxo-propyl]-2-[[3-(trifluoromethyl)benzoyl]amino]pyridine-3-carboxamide], the IC50 stood at 31.1 nM.
